Results reported in PubChem BioAssay (NCI).
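Cultured in 96-well plates, cells were exposed to test compound for 48 hours across five concentrations. Here, GI50 denotes the concentration required for 50% inhibition of growth. At the TGI there is no net growth.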

Assays:
Test in all cases: NCI anticancer screen, dose series, 48 h
COLO 205 colon = test system: COLO 205 colon
PC-3 prostate = test system: PC-3 prostate
DU-145 prostate = test system: DU-145 prostate
KM12 colon = test system: KM12 colon
SF-295 CNS = test system: SF-295 CNS
HT29 colon = test system: HT29 colon
NCI-H226 lung = test system: NCI-H226 lung
BT-549 breast = test system: BT-549 breast
HOP-62 NSCLC = test system: HOP-62 NSCLC
T-47D breast = test system: T-47D breast

Row | Compound | GI50 (COLO 205 colon) [µM] | TGI (COLO 205 colon) [µM] | GI50 (PC-3 prostate) [µM] | TGI (PC-3 prostate) [µM] | GI50 (DU-145 prostate) [µM] | TGI (DU-145 prostate) [µM] | GI50 (KM12 colon) [µM] | TGI (KM12 colon) [µM] | GI50 (SF-295 CNS) [µM] | TGI (SF-295 CNS) [µM] | GI50 (HT29 colon) [µM] | TGI (HT29 colon) [µM] | GI50 (NCI-H226 lung) [µM] | TGI (NCI-H226 lung) [µM] | GI50 (BT-549 breast) [µM] | TGI (BT-549 breast) [µM] | TGI (HOP-62 NSCLC) [µM] | GI50 (HOP-62 NSCLC) [µM] | GI50 (T-47D breast) [µM] | TGI (T-47D breast) [µM]
1 | CC1CCC(C#N)(NOC2=NCCN2)CC1 (configuration not stated) | 36 | > 100 | > 100 | > 100 | 39.9 | > 100 | 42.6 | > 100 | 23.6 | 93.4 | > 100 | > 100 | 15.2 | 34.1 | 31.3 | > 100 |  |  |  | 
2 | C/C(CC(=O)Nc1ccc(NC(=O)/C(C)=N/NS(=O)(=O)c2ccc(C)cc2)cc1)=N\NS(=O)(=O)c1ccc(C)cc1 |  | > 100 |  |  |  |  |  | > 100 |  | > 100 |  | > 100 |  | > 100 |  |  | > 100 |  |  | 
3 | Cc1cc(Cl)ccc1Nc1nc(C(F)(F)F)ccc1C(=O)N/N=C/c1ccc(N(C)C)cc1 | 2.59 | > 100 |  |  | 0.915 | 8.86 | 3.4 | > 100 | 1.42 | 4.92 | 3.8 | > 100 | 2.29 | > 100 | 0.624 | 6.78 | > 100 | 2.38 | 1.2 | > 100
4 | Cc1ccc2oc(=O)cc(C3c4ccc([nH]4)C(c4cc(=O)oc5ccc(C)cc45)c4ccc([nH]4)C(c4cc(=O)oc5ccc(C)cc45)c4ccc([nH]4)C(c4cc(=O)oc5ccc(C)cc45)c4ccc3[nH]4)c2c1 (configuration not stated) | 0.165 | 0.353 | 0.0366 | 1.94 | 0.0391 | 1.8 |  |  | 0.027 | 0.284 | 0.0347 | 0.108 | 0.0865 | 2.78 | 0.0299 | 0.183 | 1.27 | 0.0463 | 0.0434 | 2.99
5 | CC(=O)[CH-]C(=O)c1ccccc1.CC(=O)[CH-]C(=O)c1ccccc1.CC[O-].O=C1C=C([O-])C(=O)c2ccccc21.[Ti+4] | 26.9 | > 100 |  |  |  |  | 32.2 | > 100 | 37.9 | > 100 | 41 | > 100 | 76 | > 100 |  |  | > 100 | 58.2 |  | 
6 | O/N=C1/C(=C/c2ccc(Cl)cc2)CCCC1C(NO)c1ccc(Cl)cc1 (configuration not stated) |  | 42.3 |  |  |  |  |  | 40.6 |  | 36.4 |  | 36.6 |  |  |  |  | 68.9 |  |  | 
7 | CCc1c(-c2coc(CC/C(C)=C/c3ccccc3)n2)oc(OC)c(C)c1=O |  | > 47.8 |  |  |  |  |  | > 100 |  | > 100 |  | > 31.6 |  | > 100 |  |  | > 100 |  |  | 
8 | Cn1c(=O)c2[nH]cnc2n(CC(=O)O)c1=O |  | > 100 |  |  |  |  |  | > 100 |  |  |  | > 100 |  | > 100 |  |  | > 100 |  |  | 
9 | N#CNc1nc(C(=O)Nc2ccc(Cl)cc2)cc(-c2ccccc2)n1 |  |  |  |  |  |  |  | > 100 |  | > 100 |  | > 100 |  | > 100 |  |  | > 100 |  |  | 
10 | COC(=O)C1CCC(N2C(=O)CCC2C(=O)OC)=N1 (configuration not stated) |  | > 100 |  |  |  |  |  | > 100 |  | > 100 |  | > 100 |  | > 100 |  |  | > 100 |  |  | 
11 | O=c1cc(-c2ccc[nH]2)[nH]c2cc3c(cc12)OCO3 |  | 60.3 |  |  |  |  |  |  | 33.8 | > 100 |  | > 100 | 35.3 | > 100 |  |  | 93.5 |  |  | 
12 | Cc1cccc(NC(=O)Cc2nc3ccccc3s2)c1C |  | > 100 |  |  |  |  |  | > 100 |  | > 100 |  | > 100 |  | > 100 |  |  | > 100 |  |  | 
13 | COc1cc(C(=C2SCCS2)c2nccc3cc(OC)c(OC)cc23)c([N+](=O)[O-])cc1OC |  | > 100 |  |  |  |  |  | > 100 |  | > 100 |  | > 100 |  | > 100 |  |  | > 100 |  |  | 
14 | O=C(Nc1ccccc1)OCc1nc2c([nH]1)C(=O)C=CC2=O |  | 3.94 |  |  |  |  |  | 29 |  | 33.1 |  | 58.5 |  | 33.3 |  |  | > 100 |  |  | 
15 | CC(=O)OC1C/C(C)=C/[C@H](O)CC(C)/C=C/[C@@]2(C)CCC(C(C)(C)O)C12 (some centres not stated) |  | > 100 |  |  |  |  |  | > 100 |  | > 100 |  | > 100 |  | > 100 |  |  | > 100 |  |  | 
16 | CCc1ccccc1NC(=O)C1=C(C)NC(C)=C(C(=O)Nc2ccccc2CC)C1c1ccc(NC(C)=O)cc1 |  | > 100 |  |  |  |  |  | > 100 |  | > 100 |  | > 100 |  | > 100 |  |  | 92.8 |  |  | 
17 | C=CC1=C(C)C(Cc2[nH]c(/C=c3\[nH]/c(=C/C4=NC(=O)C(C)/C4=C\C)c(C)c3CCC(=O)O)c(CCC(=O)OC)c2C)NC1=O (configuration not stated) | 20.2 | 36.3 | 32.9 | > 100 | 62.6 | > 100 | 21 | 40.1 | 37.8 | > 100 |  |  |  |  |  |  | 62.4 | 26.4 | 36.8 | > 100
18 | [N-]=[N+]=NC(c1cn(C2CC(O)C(CO)O2)c(=O)[nH]c1=O)C(I)I (configuration not stated) |  | > 100 |  |  |  |  |  | > 100 |  | > 100 |  | > 100 |  | > 100 |  |  | > 100 |  |  | 
19 | COc1ccc(CC(C#N)c2cc(OC)c(OC)c(OC)c2)cc1 (configuration not stated) |  | 0.133 |  | > 100 |  | 1.82 |  | 4.95 |  | 0.0783 |  | 5.72 |  | 14.3 |  | > 100 | > 100 |  |  | 
20 | C=C(CN(CCN1CCOCC1)CC(=C)c1ccc(C(=O)Nc2ccccc2N)cc1)c1ccc(C(=O)Nc2ccccc2N)cc1 | 8.21 | 20.2 | 15 | > 50 | 6.88 | 15.7 | 9.12 | 19.5 | 8.46 | 19.9 |  |  |  |  | 8.56 | 21.2 | > 50 | 9.94 | 8.33 | 47.6
21 | CN(C)CCC(=O)NCc1c2nc3ccccc3nc2n2ccccc12 | 73.3 | > 100 | 33.5 | > 100 | 12.3 | > 100 | 26 | > 100 | 61.1 | > 100 | 35.9 | > 100 |  |  | 23.3 | 60.8 | > 100 | 24 | > 100 | > 100
